The subject of series [1] is HIV-1 NL 4-3. In words: Infection of human peripheral blood lymphocytes (PBL) with NL 4-3 strain, p24 ELISA. Format: cell-based. The conditions noted are these: PBL, NL 4-3 strain; Table 4. As to the method: Peripheral blood lymphocytes from an HIV-1 negative donor were grown as described earlier, maintained in RPMI 1640 with ultraglutamine, supplemented with IL2 (20 μg/ml), penicillin (100 U/ml), streptomycin (100 μg/ml), and 10% heat-inactivated fetal calf serum. Cells were stimulated three days in the medium supplemented with phytohemagglutinin (20 U/ml PHA P, DIFCO, Detroit Mich.).
Samples of 10^6/100 μL PBL cells were preincubated in 96-well microtiter plates in culture medium containing various concentrations of peptides. After a 1 h treatment at 37° C., 100 μl of diluted viral solution of HIV-1 was added. The cells were exposed to the virus for 1 h at 37° C. at a multiplicity of infection of 1000 TCID50 per ml. The cells were washed three times and cultured at […] of medium with the treatment in 24-well plates incubated at 37° in culture medium with the peptides in 5% CO2. The treatment was permanent before virus adsorption, during virus adsorption and after infection. The PBL culture medium was replaced every 3-4 days during three weeks always in the presence of peptide. The cell viability was assessed by cell counts and trypan-blue exclusion assay. The viral production in the culture supernatant was quantified by p24 ELISA test, as described earlier. All the experiments have been done in blind-tests. Tests have been done in duplicate.

Series [2] relates to HIV-1 89.6 subtype B dualtropic (X4R5). The conditions noted are these: PBMC, Table 5.
Series [3] relates to HIV-1 NL 4-3. Put plainly: HIV-1 infection of C8166 cells (syncytia formation, p24 ELISA) with HIV-1 NL 4-3. Format: cell-based. The note with it: C8166 cells, HIV-1 subtype B NL 4-3; Table 3. As to the method:
HIV-1 NL 4-3 isolate (Adachi et al., 1986; Barré-Sinoussi et al., 1983) and highly cytopathic Zairian HIV-1 NDK isolate (Ellrodt et al., 1984) was propagated in permissive CEM cells (Nara et al., 1987). Uninfected CEM and C8166 (Salahuddin et al., 1983) were maintained in RPMI 1640 (R10) with ultraglutamine (cambrex, Vervier, Belgium), penicillin (100 U/ml), streptomycin (100 μg/ml), and 10% heat-inactivated fetal calf serum (Cambrex).
(§1) Samples of 3×10^5/100 μL C8166 cells were preincubated in 96-well microtiter plates in culture medium containing various concentrations of peptide. After a 1 h treatment at 37° C., 100 μl of diluted viral solution of HIV-1 was added. The cells were exposed to the virus for 1 h at 37° C. at a multiplicity of infection of 1000 TCID50 per ml. The cells were washed three times and cultured at 3×10^5/ml of R10 with the treatment in 24-well plates incubated at 37° C. C8166 culture medium was replaced at Day-4 post-infection. The treatment was permanent before virus adsorption, during virus adsorption and after infection. Assays on C8166 cells have been performed at least twice and in duplicate. Toxicity was evaluated by daily cell count and trypan-blue exclusion assay. Infection of C8166 T-cells with HIV-1 was assessed by virus-induced cytopathic effects (syncytia formation) and by quantification of cell free p24 viral protein in the culture supernatants. Measurements of HIV-1 p24^gag concentration in the culture supernatants were achieved by ELISA (ALLIANCE® HIV-1 p24 kit, Perkin Elmer, life sciences, USA).

The test system of a further series is C8166 cells. In words: Toxicity on C8166 cells (daily cell count, trypan-blue exclusion). Format: cell-based. The conditions noted are these: at doses up to 10 μM. As to the method:
as §1

`CC(C)C[C@H](NC(=O)[C@@H]1CCCN1C(=O)[C@H](CO)NC(=O)[C@H](Cc1ccc(O)cc1)NC(=O)CNC(=O)[C@H](CCC(N)=O)NC(=O)[C@@H](N)CCCNC(=N)N)C(=O)NCCCC[C@H](NC(=O)[C@H](CC(C)C)NC(=O)[C@@H]1CCCN1C(=O)[C@H](CO)NC(=O)[C@H](Cc1ccc(O)cc1)NC(=O)CNC(=O)[C@H](CCC(N)=O)NC(=O)[C@@H](N)CCCNC(=N)N)C(=O)NCCCC[C@H](NC(=O)[C@H](CCCCNC(=O)[C@H](CC(C)C)NC(=O)[C@@H]1CCCN1C(=O)[C@H](CO)NC(=O)[C@H](Cc1ccc(O)cc1)NC(=O)CNC(=O)[C@H](CCC(N)=O)NC(=O)[C@@H](N)CCCNC(=N)N)NC(=O)[C@H](CC(C)C)NC(=O)[C@@H]1CCCN1C(=O)[C@H](CO)NC(=O)[C@H](Cc1ccc(O)cc1)NC(=O)CNC(=O)[C@H](CCC(N)=O)NC(=O)[C@@H](N)CCCNC(=N)N)C(=O)NCCCC[C@H](NC(=O)[C@H](CCCCNC(=O)[C@H](CCCCNC(=O)[C@H](CC(C)C)NC(=O)[C@@H]1CCCN1C(=O)[C@H](CO)NC(=O)[C@H](Cc1ccc(O)cc1)NC(=O)CNC(=O)[C@H](CCC(N)=O)NC(=O)[C@@H](N)CCCNC(=N)N)NC(=O)[C@H](CC(C)C)NC(=O)[C@@H]1CCCN1C(=O)[C@H](CO)NC(=O)[C@H](Cc1ccc(O)cc1)NC(=O)CNC(=O)[C@H](CCC(N)=O)NC(=O)[C@@H](N)CCCNC(=N)N)NC(=O)[C@H](CCCCNC(=O)[C@H](CC(C)C)NC(=O)[C@@H]1CCCN1C(=O)[C@H](CO)NC(=O)[C@H](Cc1ccc(O)cc1)NC(=O)CNC(=O)[C@H](CCC(N)=O)NC(=O)[C@@H](N)CCCNC(=N)N)NC(=O)[C@H](CC(C)C)NC(=O)[C@@H]1CCCN1C(=O)[C@H](CO)NC(=O)[C@H](Cc1ccc(O)cc1)NC(=O)CNC(=O)[C@H](CCC(N)=O)NC(=O)[C@@H](N)CCCNC(=N)N)C(=O)NCCC(=O)O` [RL, (RQGYSPL)8-K4-K2-K-βA-OH, reference compound]: the IC50 – broadly, the point on the concentration scale where inhibition reaches its midpoint – was found to be 5 nM in the series with HIV-1 NL 4-3 [1], 6 nM in series [2] and 10 nM with HIV-1 NL 4-3 [3]. Besides, the values for the IC100 (with HIV-1 NL 4-3 [1]; in series [2]) were 0.1 µM and 0.05 µM, respectively.

As to `C[C@H](NC(=O)[C@H](CCCNC(=N)N)NC(=O)CNC(=O)[C@@H]1CCCN1C(=O)CN)C(=O)N[C@@H](Cc1ccccc1)C(=O)NCCCC[C@H](NC(=O)[C@H](Cc1ccccc1)NC(=O)[C@H](C)NC(=O)[C@H](CCCNC(=N)N)NC(=O)CNC(=O)[C@@H]1CCCN1C(=O)CN)C(=O)NCCCC[C@H](NC(=O)[C@H](CCCCNC(=O)[C@H](Cc1ccccc1)NC(=O)[C@H](C)NC(=O)[C@H](CCCNC(=N)N)NC(=O)CNC(=O)[C@@H]1CCCN1C(=O)CN)NC(=O)[C@H](Cc1ccccc1)NC(=O)[C@H](C)NC(=O)[C@H](CCCNC(=N)N)NC(=O)CNC(=O)[C@@H]1CCCN1C(=O)CN)C(=O)NCCCC[C@H](NC(=O)[C@H](CCCCNC(=O)[C@H](CCCCNC(=O)[C@H](Cc1ccccc1)NC(=O)[C@H](C)NC(=O)[C@H](CCCNC(=N)N)NC(=O)CNC(=O)[C@@H]1CCCN1C(=O)CN)NC(=O)[C@H](Cc1ccccc1)NC(=O)[C@H](C)NC(=O)[C@H](CCCNC(=N)N)NC(=O)CNC(=O)[C@@H]1CCCN1C(=O)CN)NC(=O)[C@H](CCCCNC(=O)[C@H](Cc1ccccc1)NC(=O)[C@H](C)NC(=O)[C@H](CCCNC(=N)N)NC(=O)CNC(=O)[C@@H]1CCCN1C(=O)CN)NC(=O)[C@H](Cc1ccccc1)NC(=O)[C@H](C)NC(=O)[C@H](CCCNC(=N)N)NC(=O)CNC(=O)[C@@H]1CCCN1C(=O)CN)C(=O)NCCCCC(=O)O` [S5, SPC3-(δ-aminovaleric acid)], the toxicity on cells entry in the series with C8166 cells was “no toxicity”.

Source of the values: patent publication US20060229433A1, “Modified antiviral peptides with increased activity and cell membrane affinity” (priority 2003, published 2006).
